# Source: patent EP0332295A2, “Novel imidazole derivative” (priority 1988, dated 1989)
# System: mice
# Assay: Anti-hypoxia action (hypobaric hypoxia, existence time at 180 mmHg, life prolongation ratio)
# Format: in vivo
# Details: Mus musculus, ip; male ddy mice, administered in the abdominal cavity at 25 mg/kg, 30 minutes before pressure reduction to 180 mmHg; ratio of existence time to saline control (cut-off 15 minutes)
# Method: With respect to each of the above-mentioned compounds (compounds Nos. 1 through 54), the anti-hypoxia action was tested according to the following method and was evaluated by the life prolongation ratio.
# Male mice if the ddy-line, which were 5 to 8 weeks old, were used as test animals, and they were divided into groups, each consisting of 7 to 10 mice. The compound to be tested was dissolved in a physiological saline solution. If the compound to be tested was insoluble, the compound was suspended in 1% gum arabic. The solution or suspension was administered in the abdominal cavity at a does of 25 mg/kg and when 30 minutes had passed from the point of the administration, the mice were independently placed one by one into a desiccator (capacity = 1 liter) and the pressure in the desiccator was reduced to 180 mmHg by a vacuum pump.
# The period of from the point of initiation of the reduction of the pressure to the point of the stop of breathing was regarded as the existence time. When the mouse lived for more than 15 minutes, the calculation was done while regarding the existence time as being 15 minutes.
# The significant difference test of the existence time was carried out according to the student t-test method using controls to which a physiological saline solution alone had been administered. The ratio of the existence time of the sample-administered group to the existence time of the physiological saline solution-administered control group was calculated as the life prolongation ratio.
row,Structure (SMILES),response vs control in vivo at 25 mg/kg
1,"CN(C)C(=O)n1cnc(Cc2ccccc2)c1 [compound 1, 4-benzyl-1-(N,N-dimethylcarbamoyl)imidazole]",85%
2,Cc1cccc(C)c1Cc1cn(C(=O)N(C)C)cn1 [compound 2],305%
3,Cc1cc(C)c(Cc2cn(C(=O)N(C)C)cn2)c(C)c1 [compound 4],184%
4,Cc1cccc(C)c1Cc1cn(C(=O)N(C)C(C)C)cn1 [compound 9],466%
5,Cc1cccc(C)c1Cc1cn(C(=O)N(C)C2CCCCC2)cn1 [compound 10],253%
6,C=CCN(C)C(=O)n1cnc(Cc2c(C)cccc2C)c1 [compound 11],255%
7,CON(C)C(=O)n1cnc(Cc2c(C)cccc2C)c1 [compound 12],109%
8,CCN(CC)C(=O)n1cnc(Cc2c(C)cccc2C)c1 [compound 13],281%
9,Cc1cccc(C)c1Cc1cn(C(=O)N2CCCCC2)cn1 [compound 14],270%
10,Cc1cccc(C)c1Cc1cn(C(=O)N2CCOCC2)cn1 [compound 17],165%
11,CCOC(=O)n1cnc(Cc2c(C)cccc2C)c1 [compound 18],182%
12,Cc1cccc(C)c1Cc1cn(C(=S)N(C)C)cn1 [compound 20],243%
13,"CN(C)C(=O)Sc1nc(-c2ccccc2)c[nH]1 [compound 21, 2-(N,N-dimethylcarbamoylthio)-4-phenylimidazole]",283%
14,CN(C)C(=O)Sc1nc(-c2ccccc2)cn1C [compound 22],230%
15,CCn1cc(-c2ccccc2)nc1SC(=O)N(C)C [compound 23],264%
16,CCCn1cc(-c2ccccc2)nc1SC(=O)N(C)C [compound 24],163%
17,CC(C)n1cc(-c2ccccc2)nc1SC(=O)N(C)C [compound 25],119%
18,CN(C)C(=O)Sc1nc(-c2ccccc2)cn1C1CCCCC1 [compound 26],132%

row,Structure (SMILES),response vs control in vivo at 25 mg/kg
1,CN(C)C(=O)Sc1nc(-c2ccccc2)cn1-c1ccccc1 [compound 27],146%
2,"CN(C)C(=O)Sc1nc(-c2ccccc2)cn1-c1ccc([N+](=O)[O-])cn1 [compound 28, 2-(N,N-dimethylcarbamoylthio)-1-(5-nitropyridinyl)-4-phenylimidazole]",102%
3,CN(C)C(=O)Sc1nc(-c2ccccc2)cn1-c1ncccc1[N+](=O)[O-] [compound 29],110%
4,"CN(C)C(=O)Sc1nc(-c2ccccc2)cn1C(=O)N(C)C [compound 30, 1-(N,N-dimethylcarbamoyl)-2-(N,N-dimethylcarbamoylthio)-4-phenylimidazole]",115%
5,CCOC(=O)n1cc(-c2ccccc2)nc1SC(=O)N(C)C [compound 31],123%
6,CC(=O)n1cc(-c2ccccc2)nc1SC(=O)N(C)C [compound 32],281%
7,CC(=O)n1cc(-c2ccccc2)nc1SC(=O)N(C)C(C)C [compound 33],127%
8,O=C(Sc1nc(-c2ccccc2)cn1C(=O)N1CCCCC1)N1CCCCC1 [compound 38],113%
9,Cc1[nH]c(SC(=O)N(C)C)nc1-c1ccccc1 [compound 42],192%
10,CCc1[nH]c(SC(=O)N(C)C)nc1-c1ccccc1 [compound 43],121%
11,CCOC(=O)c1[nH]c(SC(=O)N(C)C)nc1-c1ccccc1 [compound 44],143%
12,Cc1ccccc1-c1c[nH]c(SC(=O)N(C)C)n1 [compound 45],192%
13,COc1ccc(-c2c[nH]c(SC(=O)N(C)C)n2)cc1 [compound 47],165%
14,CN(C)C(=O)Sc1nc(-c2ccc(-c3ccccc3)cc2)c[nH]1 [compound 49],127%
15,CN(C)C(=O)Sc1nccn1-c1ccccc1 [compound 50],127%
16,"Cn1c(=O)sc2nc(-c3ccccc3)cn2c1=O [compound 53, 3-methyl-7-phenyl-1,3,5-thiadiazino[3,2-a]imidazole-2,4(3H)-dione]",145%
17,CCn1c(=O)sc2nc(-c3ccccc3)cn2c1=O [compound 54],137%

# Same assay, conditions: male ddy mice, administered in the abdominal cavity at 25 mg/kg, 30 minutes before pressure reduction to 180 mmHg; ratio of existence time to saline control (cut-off 15 minutes)
row,Structure (SMILES),Life Prolongation Ratio
1,CN(C)C(=O)n1cnc(C[n+]2ccccc2)c1 [compound 19],1.09

# System: mice
# Assay: as above
# Format: in vivo
# Details: Mus musculus, ip; male ddy mice, administration dose = 12.5 mg/kg in the abdominal cavity, 30 minutes before pressure reduction to 180 mmHg; ratio of existence time to saline control
row,Structure (SMILES),response vs control in vivo at 12.5 mg/kg
1,CCN(CC)C(=O)Sc1nc(-c2ccccc2)c[nH]1 [compound 34],100%
2,CCCN(CCC)C(=O)Sc1nc(-c2ccccc2)c[nH]1 [compound 35],87%
3,O=C(Sc1nc(-c2ccccc2)c[nH]1)N1CCCC1 [compound 36],94%
4,O=C(Sc1nc(-c2ccccc2)c[nH]1)N1CCCCC1 [compound 37],85%
5,O=C(Sc1nc(-c2ccccc2)c[nH]1)N1CCOCC1 [compound 39],104%
6,O=C(Sc1nc(-c2ccccc2)c[nH]1)N1CCSCC1 [compound 40],93%
7,O=C(Sc1nc(-c2ccccc2)c[nH]1)N1CCCc2ccccc21 [compound 41],76%
8,Cc1ccc(-c2c[nH]c(SC(=O)N(C)C)n2)cc1 [compound 46],95%
9,CN(C)C(=O)Sc1nc(-c2ccc(Cl)cc2)c[nH]1 [compound 48],115%

# Same assay, conditions: Mus musculus, ip; male ddy mice, administration dose = 50 mg/kg in the abdominal cavity, 30 minutes before pressure reduction to 180 mmHg; ratio of existence time to saline control
row,Structure (SMILES),response vs control in vivo at 50 mg/kg
1,CN(C)C(=O)Sc1nccn1-c1ccc([N+](=O)[O-])cn1 [compound 51],245%
2,CN(C)C(=O)Sc1nccn1-c1ncccc1[N+](=O)[O-] [compound 52],192%
